Values of other authors in paper PMC9516332 (Frontiers in Oncology, 2022).
Read-outs that look alike come from different tables or passages of the source.

Key:
Conditions in all cases: cited from earlier work
[1] = biological target: T1, panel of 255 wild-type kinases (Homo sapiens, UniProt O60285)
T1 sequence (O60285 1-661): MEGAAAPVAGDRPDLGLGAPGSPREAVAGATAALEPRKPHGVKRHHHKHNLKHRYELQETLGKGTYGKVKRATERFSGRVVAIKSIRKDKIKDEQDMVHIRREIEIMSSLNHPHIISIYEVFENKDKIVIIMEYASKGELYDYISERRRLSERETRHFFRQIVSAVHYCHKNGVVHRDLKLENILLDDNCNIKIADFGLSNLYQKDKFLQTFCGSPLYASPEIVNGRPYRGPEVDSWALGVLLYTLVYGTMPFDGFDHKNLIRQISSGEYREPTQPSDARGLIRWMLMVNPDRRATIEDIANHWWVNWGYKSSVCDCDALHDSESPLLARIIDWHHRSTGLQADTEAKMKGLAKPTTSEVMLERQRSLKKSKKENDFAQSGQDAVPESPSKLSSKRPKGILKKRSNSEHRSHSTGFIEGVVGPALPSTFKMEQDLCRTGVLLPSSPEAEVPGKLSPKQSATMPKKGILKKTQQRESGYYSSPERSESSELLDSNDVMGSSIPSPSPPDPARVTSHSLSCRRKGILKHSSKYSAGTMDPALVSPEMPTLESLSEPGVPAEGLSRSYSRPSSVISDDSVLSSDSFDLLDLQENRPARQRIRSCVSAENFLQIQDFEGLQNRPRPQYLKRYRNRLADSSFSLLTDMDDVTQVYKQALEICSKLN

[2] = biological target: panel of 255 wild-type kinases (Homo sapiens, UniProt P04626)
[3] = biological target: T2, panel of 255 wild-type kinases (Homo sapiens, UniProt Q9BXA7)
T2 sequence (Q9BXA7 1-367): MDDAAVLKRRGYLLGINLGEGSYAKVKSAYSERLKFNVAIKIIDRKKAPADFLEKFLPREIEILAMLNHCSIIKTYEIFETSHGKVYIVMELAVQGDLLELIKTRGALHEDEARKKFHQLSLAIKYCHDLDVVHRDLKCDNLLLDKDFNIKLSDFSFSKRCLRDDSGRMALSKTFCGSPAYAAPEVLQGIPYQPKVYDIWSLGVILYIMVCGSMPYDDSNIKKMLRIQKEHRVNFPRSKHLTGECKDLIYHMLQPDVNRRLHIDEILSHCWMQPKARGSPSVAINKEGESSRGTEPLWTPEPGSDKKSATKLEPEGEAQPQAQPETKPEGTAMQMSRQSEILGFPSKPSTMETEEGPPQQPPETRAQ

[4] = biological target: panel of 255 wild-type kinases (Homo sapiens, UniProt Q05397)
[5] = biological target: T3, panel of 255 wild-type kinases (Homo sapiens, UniProt O14920)
T3 sequence (O14920 1-756): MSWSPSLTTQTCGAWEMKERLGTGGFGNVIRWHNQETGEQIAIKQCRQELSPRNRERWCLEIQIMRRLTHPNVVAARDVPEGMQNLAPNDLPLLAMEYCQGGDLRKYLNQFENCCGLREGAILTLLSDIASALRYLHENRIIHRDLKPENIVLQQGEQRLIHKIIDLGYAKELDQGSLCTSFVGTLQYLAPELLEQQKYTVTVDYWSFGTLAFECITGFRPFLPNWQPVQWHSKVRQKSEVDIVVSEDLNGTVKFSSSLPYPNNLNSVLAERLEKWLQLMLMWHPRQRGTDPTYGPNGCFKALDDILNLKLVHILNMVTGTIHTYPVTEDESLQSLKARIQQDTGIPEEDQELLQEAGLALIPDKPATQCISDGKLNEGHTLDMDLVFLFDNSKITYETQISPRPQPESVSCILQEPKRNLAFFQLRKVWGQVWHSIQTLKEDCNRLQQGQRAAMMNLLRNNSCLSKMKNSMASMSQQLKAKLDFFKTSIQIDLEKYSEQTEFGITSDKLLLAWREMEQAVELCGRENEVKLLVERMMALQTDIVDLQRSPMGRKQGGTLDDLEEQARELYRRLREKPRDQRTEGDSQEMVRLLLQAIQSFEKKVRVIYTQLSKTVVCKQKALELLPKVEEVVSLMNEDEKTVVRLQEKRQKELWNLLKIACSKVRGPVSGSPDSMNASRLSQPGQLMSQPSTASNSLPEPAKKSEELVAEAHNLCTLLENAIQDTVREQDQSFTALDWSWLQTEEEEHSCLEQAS

[6] = biological target: T4, panel of 255 wild-type kinases (Homo sapiens, UniProt P51817)
T4 sequence (P51817 1-358): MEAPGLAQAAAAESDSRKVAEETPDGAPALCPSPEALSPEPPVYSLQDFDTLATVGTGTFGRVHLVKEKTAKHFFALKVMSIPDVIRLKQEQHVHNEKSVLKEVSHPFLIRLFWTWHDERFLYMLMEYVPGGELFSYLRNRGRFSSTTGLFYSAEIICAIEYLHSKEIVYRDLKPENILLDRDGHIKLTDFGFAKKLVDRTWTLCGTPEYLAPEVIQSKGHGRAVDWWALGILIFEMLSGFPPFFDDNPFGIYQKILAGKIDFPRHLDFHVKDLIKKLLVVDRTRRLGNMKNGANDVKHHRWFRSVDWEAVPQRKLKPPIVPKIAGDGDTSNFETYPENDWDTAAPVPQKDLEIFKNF

[7] = biological target: panel of 255 wild-type kinases (Homo sapiens, UniProt P28482)
[8] = biological target: panel of 255 wild-type kinases (Homo sapiens, UniProt Q13882)
[9] = NuaK1, 1 µmol/L single concentration, ref DOI: 10.1158/1535-7163.MCT-18-0877
[10] = kinase HER2, 1 µmol/L single concentration, ref DOI: 10.1158/1535-7163.MCT-18-0877
[11] = kinase TSSK1, 1 µmol/L single concentration, ref DOI: 10.1158/1535-7163.MCT-18-0877
[12] = kinase FAK, 1 µmol/L single concentration, ref DOI: 10.1158/1535-7163.MCT-18-0877
[13] = kinase IKKβ, 1 µmol/L single concentration, ref DOI: 10.1158/1535-7163.MCT-18-0877
[14] = kinase PRKX, 1 µmol/L single concentration, ref DOI: 10.1158/1535-7163.MCT-18-0877
[15] = kinase Erk2, 1 µmol/L single concentration, ref DOI: 10.1158/1535-7163.MCT-18-0877
[16] = BRK kinase assay, 1 µmol/L single concentration, ref DOI: 10.1158/1535-7163.MCT-18-0877

SMILES | %-inhibition, NuaK1 [1, 9] [%] | %-inhibition at 1 µmol/L, HER2 [2, 10] [%] | %-inhibition at 1 µmol/L, TSSK1 [3, 11] [%] | %-inhibition at 1 µmol/L, FAK [4, 12] [%] | %-inhibition at 1 µmol/L, IKKβ [5, 13] [%] | %-inhibition at 1 µmol/L, PRKX [6, 14] [%] | %-inhibition at 1 µmol/L, Erk2 [7, 15] [%] | %-inhibition BRK [8, 16] [%] | %-inhibition, NuaK1 [1] [%] | %-inhibition at 1 µmol/L, HER2 [2] [%] | %-inhibition at 1 µmol/L, TSSK1 [3] [%] | %-inhibition at 1 µmol/L, FAK [4] [%] | %-inhibition at 1 µmol/L, IKKβ [5] [%] | %-inhibition at 1 µmol/L, PRKX [6] [%] | %-inhibition at 1 µmol/L, Erk2 [7] [%] | %-inhibition BRK [8] [%]
CC#CC(=O)N1CCC[C@H]1c1nc(-c2ccc(C(=O)Nc3ccccn3)cc2)c2c(N)nccn12 [acalabrutinib] | -3.51 | 16 | -7 | -1.39 | -7 | -4.59 | -2 | 51 |  |  |  |  |  |  |  | 
CCc1cc2c(cc1N1CCC(N3CCOCC3)CC1)C(C)(C)c1[nH]c3cc(C#N)ccc3c1C2=O [alectinib] | -19 | -1.77 | 22 | 17 | -5 | 1.81 | 1.1 | 9 |  |  |  |  |  |  |  | 
COc1cc(N2CCC(N3CCN(C)CC3)CC2)ccc1Nc1ncc(Cl)c(Nc2ccccc2P(C)(C)=O)n1 [brigatinib] |  |  |  |  |  |  |  |  | 90 | 69 | 101 | 99 | -4.22 | 47 | 10 | 103
